From US9603833B2, “Benzene or thiophene derivative and use thereof as VAP-1 inhibitor” (R-Tech Ueno, Ltd., priority 2008, dated 2017)
Structures can show the parent of a compound that is named as a salt.

Key:
Assay type in all cases: biochemical
[1] = molecular target: human MAO-A (Homo sapiens (Human), UniProt P21397); experiment: Inhibitory effect on human MAO-A, MAO Detection Kit (Fluoro MAO); settings: gene recombinant human MAO-A; fluorescence at 590 nm; 37° C., 2 hrs; read-out: MAO-A inhibition IC50
human MAO-A, sequence (P21397 whole entry): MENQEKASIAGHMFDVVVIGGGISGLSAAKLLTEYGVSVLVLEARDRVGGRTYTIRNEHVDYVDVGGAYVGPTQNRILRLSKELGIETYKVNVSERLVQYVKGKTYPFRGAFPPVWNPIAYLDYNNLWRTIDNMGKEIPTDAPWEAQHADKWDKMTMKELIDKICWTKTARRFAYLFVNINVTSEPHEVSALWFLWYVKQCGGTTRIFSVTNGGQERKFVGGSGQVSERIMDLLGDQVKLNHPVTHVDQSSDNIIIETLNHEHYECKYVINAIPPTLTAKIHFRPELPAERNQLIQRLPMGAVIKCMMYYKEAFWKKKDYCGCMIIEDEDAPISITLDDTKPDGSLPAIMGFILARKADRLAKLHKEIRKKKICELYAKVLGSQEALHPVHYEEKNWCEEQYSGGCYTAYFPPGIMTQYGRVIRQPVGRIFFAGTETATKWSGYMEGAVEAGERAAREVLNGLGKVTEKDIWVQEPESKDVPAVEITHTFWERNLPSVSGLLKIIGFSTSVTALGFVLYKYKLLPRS
Method: (§1) The compounds of the present invention obtained in the Production Examples were examined for the inhibitory effect on human monoamineoxydase enzymes (MAO-A and MAO-B) by the following method.
(§2) Gene recombinant human MAO-A and MAO-B enzymes were purchased from Sigma Ltd. The human MAO-A and MAO-B activities were measured using MAO Detection Kit (Fluoro MAO, Cell Technology Inc.). Assay was performed in a 96-well plate. 1× Reaction buffer (40 μl) was added to each well, and 50 μl (5 mg/ml) of MAO-A or MAO-B was added. Then, test compound solutions (final concentration 1×10^−4-1×10^−10 mol/l) (10 μl) were added and the mixtures were incubated at 37° C. for 20 mins. Reaction cocktail (100 μl) was added, and the mixtures (final volume 200 μl) were incubated at 37° C. for 2 hrs. Thereafter, the fluorescence at 590 nm was detected with an excitation wavelength of 570 nm using a multispectro microplate reader (Varioskan, Thermo Fisher Scientific K.K.).

[2] = molecular target: human MAO-B (Homo sapiens (Human), UniProt P27338); experiment: Inhibitory effect on human MAO-B, MAO Detection Kit (Fluoro MAO); settings: gene recombinant human MAO-B; fluorescence at 590 nm; 37° C., 2 hrs; read-out: MAO-B inhibition IC50
human MAO-B, sequence (P27338 whole entry): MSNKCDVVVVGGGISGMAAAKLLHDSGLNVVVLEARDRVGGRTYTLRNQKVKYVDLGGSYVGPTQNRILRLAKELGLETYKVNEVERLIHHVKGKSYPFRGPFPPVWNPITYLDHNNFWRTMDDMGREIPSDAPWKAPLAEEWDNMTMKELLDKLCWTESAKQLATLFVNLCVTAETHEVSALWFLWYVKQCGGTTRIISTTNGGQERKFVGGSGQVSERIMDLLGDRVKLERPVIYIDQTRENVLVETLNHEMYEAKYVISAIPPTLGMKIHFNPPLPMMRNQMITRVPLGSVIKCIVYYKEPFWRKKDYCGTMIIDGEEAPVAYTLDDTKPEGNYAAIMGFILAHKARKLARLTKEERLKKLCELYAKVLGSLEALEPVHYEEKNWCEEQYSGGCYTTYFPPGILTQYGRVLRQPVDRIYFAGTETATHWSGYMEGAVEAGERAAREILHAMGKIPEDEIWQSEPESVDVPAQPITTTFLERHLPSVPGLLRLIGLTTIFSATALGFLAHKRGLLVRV
Method: as §1, §2

[3] = molecular target: rat VAP-1 enzyme (SSAO) (Rattus norvegicus (Rat), UniProt O08590); experiment: Inhibitory effect on rat VAP-1 enzyme (SSAO), radiochemical-enzyme assay using 14C-benzylamine; settings: rat VAP-1 expressed in a cell, cell extract; 14C-benzylamine 1×10^−5 mol/L; 37° C., 2 hours
rat VAP-1 enzyme (SSAO), sequence (O08590 whole entry): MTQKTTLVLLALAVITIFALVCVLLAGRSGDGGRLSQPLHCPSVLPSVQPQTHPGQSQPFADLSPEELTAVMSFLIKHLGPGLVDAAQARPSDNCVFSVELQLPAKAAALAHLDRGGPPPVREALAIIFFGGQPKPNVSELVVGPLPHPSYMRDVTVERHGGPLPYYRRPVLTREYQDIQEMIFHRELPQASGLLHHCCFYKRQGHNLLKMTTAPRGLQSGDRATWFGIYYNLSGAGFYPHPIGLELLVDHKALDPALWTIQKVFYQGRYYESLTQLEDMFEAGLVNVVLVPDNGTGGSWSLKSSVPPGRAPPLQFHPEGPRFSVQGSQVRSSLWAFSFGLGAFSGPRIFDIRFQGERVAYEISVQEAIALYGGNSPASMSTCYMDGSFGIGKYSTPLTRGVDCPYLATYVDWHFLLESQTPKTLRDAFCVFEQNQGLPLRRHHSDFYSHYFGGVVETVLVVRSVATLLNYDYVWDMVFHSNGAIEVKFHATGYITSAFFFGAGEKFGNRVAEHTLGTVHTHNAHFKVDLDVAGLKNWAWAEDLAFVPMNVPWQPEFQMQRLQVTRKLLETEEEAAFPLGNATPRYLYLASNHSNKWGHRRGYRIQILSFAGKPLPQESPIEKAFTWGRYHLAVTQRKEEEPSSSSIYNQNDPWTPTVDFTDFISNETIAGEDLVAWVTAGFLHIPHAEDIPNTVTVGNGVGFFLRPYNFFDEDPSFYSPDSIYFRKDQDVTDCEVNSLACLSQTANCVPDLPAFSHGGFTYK
Method: (§3) The compounds of the present invention obtained in Production Examples were examined for the inhibitory effect on human and rat VAP-1 enzyme (SSAO) by the following method.
(§4) The VAP-1 enzyme (SSAO) activity in both human and rat was measured by a radiochemical-enzyme assay using ^14C-benzylamine as an artificial substrate. Human or rat VAP-1 was cloned from the cDNA library and expressed in a cell. The cell extract was preincubated with a test compound solution (final concentration 1×10^−7-1×10^−10 mol/L) at room temperature for 20 minutes. Then, ^14C-benzylamine (final concentration 1×10^−5 mol/L) was added, and the mixture was incubated at a final volume of 200 μL at 37° C. for 2 hours. The enzyme reaction was stopped by addition of 2 mol/L (200 μL) citric acid. The oxidation product was extracted with 1 mL toluene/ethyl acetate (1:1), and the radioactivity thereof was measured by a liquid scintillation counter.

[4] = molecular target: human VAP-1 enzyme (SSAO) (Homo sapiens (Human), UniProt Q16853); experiment: Inhibitory effect on human VAP-1 enzyme (SSAO), radiochemical-enzyme assay using 14C-benzylamine; settings: human VAP-1 expressed in a cell, cell extract; 14C-benzylamine 1×10^−5 mol/L; 37° C., 2 hours
human VAP-1 enzyme (SSAO), sequence (Q16853 whole entry): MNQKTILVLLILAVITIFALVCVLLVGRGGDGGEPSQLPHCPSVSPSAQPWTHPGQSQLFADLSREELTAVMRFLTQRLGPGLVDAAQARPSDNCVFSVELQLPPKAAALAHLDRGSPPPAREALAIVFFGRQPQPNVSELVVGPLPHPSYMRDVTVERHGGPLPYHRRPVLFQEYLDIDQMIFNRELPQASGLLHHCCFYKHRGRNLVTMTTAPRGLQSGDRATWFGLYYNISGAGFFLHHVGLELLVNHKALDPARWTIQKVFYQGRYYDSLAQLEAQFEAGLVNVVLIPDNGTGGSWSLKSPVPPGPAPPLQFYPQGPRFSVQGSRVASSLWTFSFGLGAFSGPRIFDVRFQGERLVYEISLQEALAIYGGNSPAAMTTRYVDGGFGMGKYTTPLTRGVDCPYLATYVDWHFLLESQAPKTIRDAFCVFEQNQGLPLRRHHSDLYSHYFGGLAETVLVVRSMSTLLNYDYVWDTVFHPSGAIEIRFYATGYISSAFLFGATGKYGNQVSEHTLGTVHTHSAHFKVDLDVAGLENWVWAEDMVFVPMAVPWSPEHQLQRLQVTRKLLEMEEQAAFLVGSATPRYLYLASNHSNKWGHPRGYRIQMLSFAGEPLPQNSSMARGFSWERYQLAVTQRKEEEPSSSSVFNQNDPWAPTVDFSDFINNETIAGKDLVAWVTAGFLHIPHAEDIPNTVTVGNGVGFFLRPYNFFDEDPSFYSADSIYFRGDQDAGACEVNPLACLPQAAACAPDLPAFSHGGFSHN
Method: as §3, §4

Structure (SMILES)	IC50 [1] [nM]	IC50 [2] [nM]	IC50 [3] [nM]	IC50 [4] [nM]
CN1CCN(c2ccc(CCc3ccc(CC(=O)NN)cc3)cc2)CC1 [Production Example 35, 2-(4-{2-[4-(4-methylpiperazin-1-yl)phenyl]ethyl}phenyl)acetohydrazide trihydrochloride]	> 100000	> 100000		
NNC(=O)Cc1ccc(CCc2cccc(N3CCNCC3)n2)cc1 [Production Example 51, 2-{4-[2-(6-piperazin-1-ylpyridin-2-yl)ethyl]phenyl}acetohydrazide tetrahydrochloride]	> 100000	> 100000	29.4	9.8
CC(=O)N1CCN(c2ccc(CCc3ccc(CC(=O)NN)cc3)nc2)CC1 [Production Example 87, 2-(4-{2-[5-(4-acetylpiperazin-1-yl)pyridin-2-yl]ethyl}phenyl)acetohydrazide trihydrochloride]	> 100000	> 100000	1.4	3.2
NNC(=O)Cc1ccc(CCc2ccnc(N3CCNCC3)c2)cc1 [Production Example 105, 2-{4-[2-(2-piperazin-1-ylpyridin-4-yl)ethyl]phenyl}acetohydrazide tetrahydrochloride]	> 100000	> 100000	7.2	7.3
CC(=O)N1CCN(c2ccc(CCc3csc(CCC(=O)NN)c3)nc2)CC1 [Production Example 121, 3-(4-{2-[5-(4-acetylpiperazin-1-yl)pyridin-2-yl]ethyl}thiophen-2-yl)propanehydrazide trihydrochloride]			1.6	2.2
CC(=O)N1CCN(c2ccc(CCc3ccc(CCOC(=O)NN)cc3)nc2)CC1 [Production Example 122, 2-(4-{2-[5-(4-acetylpiperazin-1-yl)pyridin-2-yl]ethyl}phenyl)ethyl hydrazinecarboxylate trihydrochloride]			8	6.6
CC(=O)N1CCN(c2ccc(CCc3csc(CCCOC(=O)NN)c3)nc2)CC1 [Production Example 124, 3-(4-{2-[5-(4-acetylpiperazin-1-yl)pyridin-2-yl]ethyl}thiophen-2-yl)propylhydrazinecarboxylate]			5.5	4.7
